Like-named read-outs stand apart in the source and are kept apart here.
What was measured:
[1] = molecular target: T1, complement C5a receptor 1 (C5aR1) (Homo sapiens, UniProt P21730); test: β-arrestin recruitment via C5aR1 activation in live CHO-K1 cells (PathHunter), antagonist mode; format: cell-based; details: antagonist mode; recombinant hC5a (EC90) as competing natural agonist; live CHO-K1 cells; read-out: [Antagonist] B-arrestin2 recruitment: Average IC50
T1 construct: β-galactosidase fragment (PathHunter enzyme complementation); host or cells: CHO-K1 (PathHunter CHO-K1 C5aR1 β-arrestin cell line)
T1 sequence (P21730 1-350): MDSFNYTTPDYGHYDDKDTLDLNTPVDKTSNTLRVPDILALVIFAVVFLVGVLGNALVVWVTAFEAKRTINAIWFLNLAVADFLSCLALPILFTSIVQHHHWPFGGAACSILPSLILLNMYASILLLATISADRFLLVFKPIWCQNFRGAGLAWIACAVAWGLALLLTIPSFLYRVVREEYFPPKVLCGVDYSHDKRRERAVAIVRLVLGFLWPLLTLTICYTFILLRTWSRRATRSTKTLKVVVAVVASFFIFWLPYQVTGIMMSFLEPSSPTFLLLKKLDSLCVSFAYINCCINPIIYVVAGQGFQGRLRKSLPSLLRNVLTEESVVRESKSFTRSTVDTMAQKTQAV
Outline: (§1)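 β-arrestin recruitment to C5aR1 in CHO-K1 cells is detected by enzyme-fragment complementation. Antagonism is measured against recombinant hC5a at its EC90; agonism is measured with compound alone. Potencies are grouped into IC50 categories.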

[2] = molecular target: T1, complement C5a receptor 1 (C5aR1); test: β-arrestin recruitment via C5aR1 activation in live CHO-K1 cells (PathHunter), agonist mode; format: cell-based
Outline: as §1

Structure (SMILES) | IC50 [1] | [Agonist] B-arrestin2 recruitment: Average EC50 (nM) ([2]; at 10 μM) | [Agonist] B-arrestin2 recruitment: Average EC50 (nM) [2]
COc1nccc(C)c1[C@H]1CC[C@H](c2cc3ncc(C)nc3n(Cc3ncccc3C(F)(F)F)c2=O)CC1 [compound 230, 7-((1r,4r)-4-(2-Methoxy-4-methylpyridin-3-yl)cyclohexyl)-3-methyl-5-((3-(trifluoromethyl)pyridine-2-yl)methyl)pyrido[2,3-b]pyrazin-6(5H)-one] | < 500 nM | Non-Active at 10 μM | –
Cc1cccc(F)c1[C@H]1CC[C@H](c2cc3ncc(CC(F)F)nc3n(Cc3ncccc3C(F)(F)F)c2=O)CC1 [compound 231, 3-(2,2-Difluoroethyl)-7-((1r,4r)-4-(2-fluoro-6-methylphenyl)cyclohexyl)-5-((3-(trifluoromethyl)pyridin-2-yl)methyl)pyrido[2,3-b]pyrazin-6(5H)-one] | < 500 nM | Non-Active at 10 μM | –
Cc1cnc2cc([C@H]3CC[C@H](c4c(C)cccc4F)CC3)c(=O)n(Cc3ncccc3CC(F)F)c2n1 [compound 232, 5-((3-(2,2-Difluoroethyl)pyridin-2-yl)methyl)-7-((1r,4r)-4-(2-fluoro-6-methylphenyl)cyclohexyl)-3-methylpyrido[2,3-b]pyrazin-6(5H)-one] | < 500 nM | Non-Active at 10 μM | –
Cc1ccc2cc([C@H]3CC[C@H](c4c(C)cccc4F)CC3)c(=O)n(Cc3nccnc3OC(F)F)c2n1 [compound 233, 1-((3-(Difluoromethoxy)pyrazin-2-yl)methyl)-3-((1r,4r)-4-(2-fluoro-6-methylphenyl)cyclohexyl)-7-methyl-1,8-naphthyridin-2(1H)-one] | < 500 nM | Non-Active at 10 μM | –
COc1nccc(C)c1[C@H]1CC[C@H](c2cc3ccc(C)nc3n(Cc3ncccc3C(F)(F)F)c2=O)CC1 [compound 234, 3-((1r,4r)-4-(2-Methoxy-4-methylpyridin-3-yl)cyclohexyl)-7-methyl-1-((3-(trifluoromethyl)pyridin-2-yl)methyl)-1,8-naphthyridin-2(1H)-one] | < 500 nM | Non-Active at 10 μM | –
Cc1cnc2cc([C@H]3CC[C@H](c4c(F)cccc4F)CC3)c(=O)n(Cc3ncccc3C3CC3)c2n1 [compound 235, 5-((3-Cyclopropylpyridin-2-yl)methyl)-7-((1r,4r)-4-(2,6-difluorophenyl)cyclohexyl)-3-methylpyrido[2,3-b]pyrazin-6(5H)-one] | < 500 nM | Non-Active at 10 μM | –
Cc1cnc2cc([C@H]3CC[C@H](c4c(F)cccc4F)CC3)c(=O)n(Cc3ncccc3CC(F)(F)F)c2n1 [compound 236, 7-((1r,4r)-4-(2,6-Difluorophenyl)cyclohexyl)-3-methyl-5-((3-(2,2,2-trifluoroethyl)pyridin-2-yl)methyl)pyrido[2,3-b]pyrazin-6(5H)-one] | < 500 nM | Non-Active at 10 μM | –
Cc1cnc2cc([C@H]3CC[C@H](c4c(C)cncc4F)CC3)c(=O)n(Cc3ncccc3C(F)(F)F)c2n1 [compound 237, 7-((1r,4r)-4-(3-Fluoro-5-methylpyridin-4-yl)cyclohexyl)-3-methyl-5-((3-(trifluoromethyl)pyridin-2-yl)methyl)pyrido[2,3-b]pyrazin-6(5H)-one] | < 500 nM | – | Non-Active
Cc1cnc2cc([C@H]3CC[C@H](c4c(C)cccc4F)CC3)c(=O)n(Cc3ncccc3OC3CC3)c2n1 [compound 238, 5-((3-Cyclopropoxypyridin-2-yl)methyl)-7-((1r,4r)-4-(2-fluoro-6-methylphenyl)cyclohexyl)-3-methylpyrido[2,3-b]pyrazin-6(5H)-one] | < 500 nM | – | Non-Active
Cc1ccc2cc([C@H]3CC[C@H](c4c(C)cccc4F)CC3)c(=O)n(Cc3ncccc3CC(F)(F)F)c2n1 [compound 239, 3-((1r,4r)-4-(2-fluoro-6-methylphenyl)cyclohexyl)-7-methyl-1-((3-(2,2,2-trifluoroethyl)pyridin-2-yl)methyl)-1,8-naphthyridin-2(1H)-one] | < 500 nM | – | Non-Active
Cc1cccc(F)c1[C@H]1CC[C@H](c2cc3ncc(C(F)F)nc3n(Cc3ncccc3C(F)(F)F)c2=O)CC1 [compound 240, 3-(Difluoromethyl)-7-((1r,4r)-4-(2-fluoro-6-methylphenyl)cyclohexyl)-5-((3-(trifluoromethyl)pyridin-2-yl)methyl)pyrido[2,3-b]pyrazin-6(5H)-one] | < 500 nM | – | Non-Active

Second part, the compound after the results:

IC50 [1] | [Agonist] B-arrestin2 recruitment: Average EC50 (nM) ([2]; at 10 μM) | [Agonist] B-arrestin2 recruitment: Average EC50 (nM) [2] | Structure (SMILES)
< 500 nM | Non-Active at 10 μM | – | Cc1cnc2cc([C@H]3CC[C@H](c4c(C)cccc4F)CC3)c(=O)n(Cc3ncccc3CC(F)(F)F)c2n1 [compound 219, 7-((1r,4r)-4-(2-Fluoro-6-methylphenyl)cyclohexyl)-3-methyl-5-((3-(2,2,2-trifluoroethyl)pyridin-2-yl)methyl) pyrido[2,3-b]pyrazin-6(5H)-one]
< 500 nM | Non-Active at 10 μM | – | Cc1cnc2cc([C@H]3CC[C@H](c4c(C)cccc4F)CC3)c(=O)n(Cc3ncccc3C3CC3)c2n1 [compound 220, 5-((3-Cyclopropylpyridin-2-yl)methyl)-7-((1r,4r)-4-(2-fluoro-6-methylphenyl)cyclohexyl)-3-methylpyrido[2,3-b]pyrazin-6(5H)-one]
< 500 nM | Non-Active at 10 μM | – | Cc1cnc2cc([C@H]3CC[C@H](c4c(C)cccc4F)CC3)c(=O)n(Cc3nccnc3C3CC3)c2n1 [compound 221, 5-((3-Cyclopropylpyrazin-2-yl)methyl)-7-((1r,4r)-4-(2-fluoro-6-methylphenyl)cyclohexyl)-3-methylpyrido[2,3-b]pyrazin-6(5H)-one]
< 500 nM | Non-Active at 10 μM | – | Cc1cnc2cc([C@H]3CC[C@H](c4c(F)cccc4F)CC3)c(=O)n(Cc3ncccc3C(F)(F)F)c2n1 [compound 222, 7-((1r,4r)-4-(2,6-Difluorophenyl)cyclohexyl)-3-methyl-5-((3-(trifluoromethyl)pyridin-2-yl)methyl)pyrido[2,3-b]pyrazin-6(5H)-one]
< 500 nM | Non-Active at 10 μM | – | Cc1ccc2cc([C@H]3CC[C@H](c4c(F)cccc4F)CC3)c(=O)n(Cc3ncccc3C(F)(F)F)c2n1 [compound 223, 3-((1r,4r)-4-(2,6-Difluorophenyl)cyclohexyl)-7-methyl-1-((3-(trifluoromethyl)pyridin-2-yl)methyl)-1,8-naphthyridin-2(1H)-one]
< 500 nM | Non-Active at 10 μM | – | Cc1cnc2cc([C@H]3CC[C@H](c4c(C)cccc4F)CC3)c(=O)n(Cc3ccccc3C(F)(F)F)c2n1 [compound 224, 7-((1r,4r)-4-(2-Fluoro-6-methylphenyl)cyclohexyl)-3-methyl-5-(2-(trifluoromethyl)benzyl)pyrido[2,3-b]pyrazin-6(5H)-one]
< 500 nM | Non-Active at 10 μM | – | Cc1ccc2cc([C@H]3CC[C@H](c4c(C)cccc4F)CC3)c(=O)n(Cc3ccccc3C(F)(F)F)c2n1 [compound 225, 3-((1r,4r)-4-(2-Fluoro-6-methylphenyl)cyclohexyl)-7-methyl-1-(2-(trifluoromethyl)benzyl)-1,8-naphthyridin-2(1H)-one]
< 500 nM | Non-Active at 10 μM | – | Cc1cccc(F)c1[C@H]1CC[C@H](c2cc3nc(CC(F)F)cnc3n(Cc3ncccc3C(F)(F)F)c2=O)CC1 [compound 226, 2-(2,2-Difluoroethyl)-7-((1r,4r)-4-(2-fluoro-6-methylphenyl)cyclohexyl)-5-((3-(trifluoromethyl)pyridin-2-yl)methyl)pyrido[2,3-b]pyrazin-6(5H)-one]
< 500 nM | Non-Active at 10 μM | – | CCCc1cnc2cc([C@H]3CC[C@H](c4c(C)cccc4F)CC3)c(=O)n(Cc3ncccc3C(F)(F)F)c2n1 [compound 227, 7-((1r,4r)-4-(2-Fluoro-6-methylphenyl)cyclohexyl)-3-propyl-5-((3-(trifluoromethyl)pyridin-2-yl)methyl)pyrido[2,3-b]pyrazin-6(5H)-one]
< 500 nM | Non-Active at 10 μM | – | Cc1cccc(F)c1[C@H]1CC[C@H](c2cc3nc(CC(F)(F)F)cnc3n(Cc3ncccc3C(F)(F)F)c2=O)CC1 [compound 228, 7-((1r,4r)-4-(2-Fluoro-6-methylphenyl)cyclohexyl)-2-(2,2,2-trifluoroethyl)-5-((3-(trifluoromethyl)pyridin-2-yl)methyl)pyrido[2,3-b]pyrazin-6(5H)-one]
< 500 nM | Non-Active at 10 μM | – | Cc1cccc(F)c1[C@H]1CC[C@H](c2cc3ncc(CC(F)(F)F)nc3n(Cc3ncccc3C(F)(F)F)c2=O)CC1 [compound 229, 7-((1r,4r)-4-(2-Fluoro-6-methylphenyl)cyclohexyl)-3-(2,2,2-trifluoroethyl)-5-((3-(trifluoromethyl)pyridin-2-yl)methyl)pyrido[2,3-b]pyrazin-6(5H)-one]

Source: patent US20260317320A1, “C5AR1 ANTAGONISTS AND USES THEREOF” (Vanqua Bio, Inc., priority 2022, published 2026)
